Test results published in patent publication US20100137412A1 (priority 2008, published 2010).

Assays:
VSV-G pseudotypes = type: cell-based, vesicular stomatitis virus
[1] = test system: H5HA and N1NA pseudotypes; type: cell-based, H5N1
[2] = test system: HIV-1 envelope pseudotypes; type: cell-based
[3] = test system: pseudotypes expressing H5HA and N1NA; type: cell-based, H5N1

CCOC(=O)C1=C[C@@H](OC(CC)CC)[C@H](NC(C)=O)[C@@H](N)C1 [oseltamivir phosphate]
effect on transduction efficiency (VSV-G pseudotypes): did not reduce
effect on transduction efficiency [1]: did not reduce
effect on transduction efficiency [2]: did not reduce
effect on transduction efficiency [3]: marked dose-dependent decrease
